One data set concerns DENV. More on the design: method as in PMID 28240606, PMID 22448770, PMID 26039671, PMID 19223625, PMID 32631507. The note with it: serotype 2; erlotinib in Huh7 (Figure 2); ref [14],[29],[30],[31],[32],[33]; read-out: DENV EC50 (previously reported); cited from earlier work.
The subject of a further data set is DENV2. The data set can be described thus: microbe, parasite or virus in culture. Format: cell-based, dengue virus (DENV2, New Guinea C strain). The conditions noted are these: for EC50: read-out: DENV Inhibition EC50; for EC90: read-out: DENV Inhibition EC90.
A further data set has as its system VEEV (TC-83). The data set can be described thus: microbe, parasite or virus in culture. The data set is classed as cell-based, Venezuelan Equine Encephalitis virus. The note with it: for EC50: read-out: VEEV Inhibition EC50; for EC90: read-out: VEEV Inhibition EC90.
The nature of data set [1]: in vitro. The note with it: human.
Data set [2] can be described thus: in vitro. The note with it: human. The source holds these as a separate data set.
Data set [3] is described as follows: in vitro. The conditions noted are these: African green monkey.
[4] abbreviates: Dengue virus, DENV2, Huh-7, 48 h.
The mark [5] stands for this setting: Venezuelan equine encephalitis virus, U-87 MG, 18 h.

Structures are written as SMILES. Where two headings read alike, the source gives them in different places.

By EC50 is commonly meant the midpoint of the concentration-response curve. As to `CC(C)(C)Oc1cccc2nc(N)nc(N)c12` [Compound 1], the EC50 with DENV was 0.0028 µM.
The term EC90 denotes the point of the concentration-response curve where the effect stands at 90%. For `CCN(CC)CCNC(=O)c1c(C)[nH]c(/C=C2\C(=O)Nc3ccc(F)cc32)c1C` [Sunitinib, sunitinib, reference compound], the figures for the concentration for a half-maximal effect (EC50) in the data set with DENV2 (setting [4]) and with VEEV (TC-83) (setting [5]) were 1.1 µM and 4.4 µM, respectively. The EC90 in the data set with DENV2 (setting [4]) and in the data set on VEEV (TC-83) (setting [5]) was greater than 10 µM throughout. Also, the CC50 in “in vitro [1]”, in the data set “in vitro [2]” and in the data set “in vitro [3]” was greater than 10 µM each time.
Consider `O=C1NCc2ccc(Nc3ccnc4ccc(Br)cc34)cc21` [Compound 52, 6-((6-bromoquinolin-4-yl)amino)isoindolin-1-one], for which the EC50 worked out at 0.64 µM in the data set with DENV2 (setting [4]) and 3.6 µM in the data set on VEEV (TC-83) (setting [5]). For the same molecule, the EC90 in the data set on DENV2 (setting [4]) is 1.51 µM; in the data set on DENV2, 1.5 µM; in the data set with VEEV (TC-83) (setting [5]), greater than 10 µM. In addition, in the data set with VEEV (TC-83), the “reduction in potency against VEEV relative to DENV” value is recorded as 4-8 fold. Moreover, the CC50 at 48 h in the data set “in vitro [1]” is greater than 10 µM. The CC50 in the data set “in vitro [2]” and in “in vitro [3]” was greater than 10 µM in each case.
What is called melting point is the temperature, or range, at which the solid turns liquid. In turn, `Oc1cccc(Nc2ccnc3ccc(Br)cc23)c1` [Compound 12, 3-((6-bromoquinolin-4-yl)amino)phenol] showed a melting point greater than 300 °C. In the data set on DENV2 (setting [4]), the concentration for a half-maximal effect (EC50) was 0.63 µM and the EC90 is 3.2 µM. For the same molecule, in the data set on VEEV (TC-83) (setting [5]), the EC50 is 9.9 µM and the EC90 is greater than 10 µM. Also, in “in vitro [1]”, the CC50 is greater than 10 µM. The molecule further came in with a CC50 in the data set “in vitro [2]” greater than 10 µM. In “in vitro [3]”, the CC50 is greater than 10 µM.
For `Clc1ccc(-c2ccc(-c3nc(NCc4cccnc4)nc4ccccc34)s2)cc1` [Compound 2], the EC50 in the data set on DENV was 0.07 µM.
As to `CNc1cccc(Nc2ccnc3ccc(Br)cc23)c1` [Compound 21, N^1-(6-bromoquinolin-4-yl)-N^3-methylbenzene-1,3-diamine], the “selectivity index window (CC50/EC50, DENV, Huh7)” value in the data set with DENV2 stood at 22 fold. In the data set with DENV2 (setting [4]), the EC50 was found to be 0.24 µM and the EC90 was 0.69 µM. In the data set on VEEV (TC-83), the “reduction in potency against VEEV relative to DENV” value is 4-8 fold, the EC50 turned out to be 1 µM and the EC90 is greater than 10 µM. In addition, in the data set on VEEV (TC-83) (setting [5]), the half-maximal effective concentration (EC50) amounted to 1.03 µM and the concentration for an effect of 90% (EC90) is 10.7 µM. The CC50 in the data set “in vitro [3]” was greater than 10 µM.
Turning to `Fc1cc2cn[nH]c2cc1Nc1ccnc2ccc(Br)cc12` [Compound 50, 6-bromo-N-(5-fluoro-1H-indazol-6-yl)quinolin-4-amine], the EC50 in the data set on DENV2 (setting [4]) was 0.69 µM; in the data set on VEEV (TC-83) (setting [5]), 2.3 µM. The 90% effect concentration (EC90) with DENV2 (setting [4]) turned out to be 3.98 µM; with DENV2 it was 4 µM; in the data set on VEEV (TC-83) (setting [5]) it was 9.6 µM. Also, the “reduction in potency against VEEV relative to DENV” value with VEEV (TC-83) is recorded as 4-8 fold. Besides, the CC50 in “in vitro [1]”, in “in vitro [2]” and in “in vitro [3]” was greater than 10 µM throughout.
On to `C#Cc1cccc(Nc2ncnc3cc(OCCOC)c(OCCOC)cc23)c1` [Erlotinib, erlotinib], for which, in the data set with DENV, the EC50 is 6.5 µM.
Regarding `COc1cc(Nc2c(C#N)cnc3ccc(I)cc23)cc(OC)c1OC` [Compound 3], in the data set with DENV, the EC50 was 0.079 µM.
Turning to `COc1cccc(Nc2ccnc3ccc(C(F)(F)F)cc23)c1` [Compound 4], the 50% effective concentration (EC50) was 0.82 µM in the data set with DENV2 (setting [4]) and greater than 10 µM with VEEV (TC-83) (setting [5]). Besides, the concentration for an effect of 90% (EC90) in the data set with DENV2 (setting [4]) was 1.5 µM; in the data set with VEEV (TC-83) (setting [5]), greater than 10 µM. The CC50 in the data set “in vitro [1]”, in the data set “in vitro [2]” and in “in vitro [3]” was greater than 10 µM throughout.

Source of the values: paper PMC8659069, “Optimization of 4-Anilinoquinolines as Dengue Virus Inhibitors” (Molecules, 2021).
